Converted amounts (≈) assume the structure as drawn. “And” between values parts separate entries of the source, which are not always exact repeats. Equal entries are not always repeated.
Columns and labels:
pRIPK1 = molecular target: T1, pRIPK1 (Homo sapiens, UniProt Q13546); test: Population PK/PD analysis of pRIPK1; assay type: in vivo
T1 construct: Human PBMC are a primary cell type that express endogenous RIPK kinase; endogenous in cells; host or cells: human PBMC isolated from blood of healthy participants
T1 sequence (Q13546 1-671): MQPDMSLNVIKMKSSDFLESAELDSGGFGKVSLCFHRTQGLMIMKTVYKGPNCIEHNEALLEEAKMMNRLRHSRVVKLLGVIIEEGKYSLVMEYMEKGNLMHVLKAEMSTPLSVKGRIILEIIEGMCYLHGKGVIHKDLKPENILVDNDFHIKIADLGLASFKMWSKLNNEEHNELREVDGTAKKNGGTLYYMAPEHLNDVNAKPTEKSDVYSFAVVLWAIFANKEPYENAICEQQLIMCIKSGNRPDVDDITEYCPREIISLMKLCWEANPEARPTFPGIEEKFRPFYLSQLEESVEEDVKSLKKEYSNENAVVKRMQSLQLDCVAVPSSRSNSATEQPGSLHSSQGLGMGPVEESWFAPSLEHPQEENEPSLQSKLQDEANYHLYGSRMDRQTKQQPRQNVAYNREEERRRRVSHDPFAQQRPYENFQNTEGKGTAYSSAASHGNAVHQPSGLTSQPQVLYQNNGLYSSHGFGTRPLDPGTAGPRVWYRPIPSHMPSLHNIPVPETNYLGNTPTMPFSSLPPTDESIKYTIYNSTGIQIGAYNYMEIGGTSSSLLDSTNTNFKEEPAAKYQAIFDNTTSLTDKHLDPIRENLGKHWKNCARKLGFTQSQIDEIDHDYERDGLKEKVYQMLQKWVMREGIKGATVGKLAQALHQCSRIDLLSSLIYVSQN
Description: An exploratory population pharmacokinetic/pharmacodynamic analysis of phosphorylated receptor-interacting protein kinase 1(pRIPK1) in healthy participants after single (SAD) and repeated (MAD) administrations of Compound 1 was carried out to develop a population PK/PD model from data after single and repeated doses in healthy adults and to derive individual parameters for each dose cohort.
The population PK/PD analysis was performed using the stochastic approximation expectation maximization (SAEM) algorithm for nonlinear mixed-effects models implemented in MONOLIX software (R1 2020). The observed plasma concentrations were used to develop the model with plasma concentrations from placebo participants and blow limit of quantitation (BLQ) plasma concentrations from verum participants being fixed to zero. Classical direct and indirect inhibitory models were evaluated. Model selection was based on objective function value Akaike and Bayesian Information criteria as well as standard goodness-of-fit plots (Psychol Methods. 2012 June; 17(2):228-43; Pharmaceutics. 2020 June; 12(6): 578.). From selected final population PK/PD model, individual PD parameters were derived and summarized by descriptive statistical analyses by study and dose level.
A total of 433 samples in 70 participants was considered (101, 121 and 211 samples after placebo, single dose and repeated doses, respectively). No data from potential outliers were excluded. In placebo participants, a very large inter-cohort and inter-individual variability was observed. […] Selection of structural PK/PD model confirmed that a direct relationship best described the data overall.

pS166-RIPK1 = molecular target: T2, pS166-RIPK1 (Homo sapiens, UniProt Q13546); test: pS166-RIPK1 inhibition in vitro in microglia; assay type: cell-based
T2 construct: endogenous in cells
T2 sequence (Q13546 1-671): T1 sequence (Q13546 1-671)

In the case of CC(C)(C(=O)N1CCOc2c(C#N)cncc2C1)C(F)F [Compound 1, 4-(3,3-difluoro-2,2-dimethyl-propanoyl)-3,5-dihydro-2H-pyrido[3,4-f] [1,4]oxazepine-9-carbonitrile], the “EC91, plasma conc for 91% decrease in E0” value (pRIPK1; derived typical value) is reported as 23.9 ng/mL, the “EC92, plasma conc for 92% decrease in E0” value (pRIPK1; derived typical value) is reported as 30.7 ng/mL and the “EC93, plasma conc for 93% decrease in E0” value (pRIPK1; derived typical value) is reported as 43.3 ng/mL. The “EC94, plasma conc for 94% decrease in E0” value (pRIPK1; derived typical value) was 76.1 ng/mL, the “EC95, plasma conc for 95% decrease in E0” value (pRIPK1; derived typical value) was 0.6 mg/L and the EC50 (pRIPK1; derived typical value, read-out: EC50, plasma conc for 50% decrease in E0 (converted)) was 6.2 nM. For the same compound, the EC90 (pRIPK1; derived typical value, read-out: EC90, plasma conc for 90% decrease in E0) was 0.0197 mg/L (≈ 0.0667 µM), the “0(Gamma)” value (pRIPK1; population PK/PD model) was 49.5% and the “E0, baseline effect” value (pRIPK1; population PK/PD model) was 8541 AU_signal. The σprop (pRIPK1; population PK/PD model) was 44.5%, the “ω(E0)” value (pRIPK1; population PK/PD model) was 73.7% and the “ω(IC50)” value (pRIPK1; population PK/PD model) was 71.4%. The “ω(Imax)” value (pRIPK1; population PK/PD model) was 192%, the Gamma (pRIPK1; population PK/PD model, sigmoidal Imax) was 1.17 and the “Imax, maximum inhibitory effect on pRIPK1” value (pRIPK1; population PK/PD model, typical value, SAD and MAD data) was 95.1% and 95%. It also gave an IC50 (pRIPK1; population PK/PD model, typical value, SAD and MAD data, read-out: IC50, plasma concentration needed for 50% of Imax (pRIPK1) (converted)) of 5.69 nM and an EC90 (pS166-RIPK1) of 64 nM.
